# Test results taken from US6110962A, “11-aryl-benzo[B]naphtho[2,3-D]furans and 11-aryl-benzo[B]naphtho[2,3-D]thiophenes useful in the treatment of insulin resistance and hyperglycemia” (American Home Products Corporation, priority 1999, dated 2000).
# Where a name gives a salt, the structure may show the parent alone.
# What was measured:
# [1] = tested on: rat hepatic microsomal PTPases; settings: PTPase activity, compound at 50 μM
# Human recombinant PTP1B = target: T1, Human recombinant PTP1B (Homo sapiens, UniProt P18031); type: biochemical; settings: read-out: IC50
# T1 construct: made in house
# T1 sequence (P18031 1-435): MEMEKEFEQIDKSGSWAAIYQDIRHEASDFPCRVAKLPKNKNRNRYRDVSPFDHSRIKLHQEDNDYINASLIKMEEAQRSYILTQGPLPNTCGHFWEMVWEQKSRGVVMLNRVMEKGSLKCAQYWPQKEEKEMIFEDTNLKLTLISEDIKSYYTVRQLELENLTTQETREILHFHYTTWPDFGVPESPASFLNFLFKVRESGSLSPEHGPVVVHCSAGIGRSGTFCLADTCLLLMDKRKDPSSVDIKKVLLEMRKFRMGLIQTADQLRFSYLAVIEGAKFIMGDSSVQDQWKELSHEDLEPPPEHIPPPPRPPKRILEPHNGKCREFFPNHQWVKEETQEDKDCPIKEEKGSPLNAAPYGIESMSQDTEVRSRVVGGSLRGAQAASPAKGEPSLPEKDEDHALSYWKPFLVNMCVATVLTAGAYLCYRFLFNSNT
SMILES,% Change from Control [1] [%],IC50 (Human recombinant PTP1B) [nM]
"N#Cc1c2ccccc2c(-c2ccc(O[C@H](Cc3ccccc3)C(=O)O)cc2)c2c1sc1ccccc12 [Example 116, (R)-2-[4-(6-Cyano-benzo[b]naphtho[2,3-d]thiophen-11-yl)-phenoxy]-3-phenyl-propionic acid]",-61.89,765
"O=C(O)[C@@H](Cc1ccccc1)Oc1c(Br)cc(-c2c3ccccc3c(Sc3ccncc3)c3sc4ccccc4c23)cc1Br [Example 134, (R)-2-{2,6-Dibromo-4-[6-(pyridin-4-ylsulfanyl)-benzo[b]naphtho[2,3-d]thiophen-11-yl]-phenoxy}-3-phenyl-propionic acid]",-69.86,93
"Oc1c(F)ccc(-c2c3ccccc3c(Br)c3sc4ccccc4c23)c1F [Example 200, 3-(6-Bromo-benzo[b]naphtho[2,3-d]thiophen-11-yl)-2,6 difluoro-phenol]",-50.62,1170
"N#Cc1c2ccccc2c(-c2cc(Br)c(O)c(Br)c2)c2c1sc1ccccc12 [Example 58, 11-(3,5-Dibromo-4-hydroxy-phenyl)-benzo[b]naphtho[2,3-d]thiophene-6-carbonitrile]",-43.32,1010
O=C(O)[C@H](CCc1ccccc1)Oc1c(Br)cc(-c2c3ccccc3c(Br)c3sc4ccccc4c23)cc1Br [Example 118],-82.00,31
"O=C(O)[C@@H](Cc1ccccc1)Oc1c(Cl)cc(-c2c3ccccc3c(Br)c3sc4ccccc4c23)cc1Cl [Example 130, (R)-2-[2,6-Dichloro-4-(6-bromo-benzo[b]naphtho[2,3-d]thiophen-11-yl)-phenoxy]l-3-phenyl-propionic acid]",-72.14,800
"Oc1c(Br)cc(-c2c3ccccc3c(Sc3ccccc3)c3sc4ccccc4c23)cc1Br [Example 64, 2,6-Dibromo-4-(6-phenylsulfanyl-benzo[b]naphtho[2,3-d]thiophen-11-yl)-pheno]",-15.90,347
"C[C@@H](Oc1c(I)cc(-c2c3ccccc3cc3sc4ccccc4c23)cc1I)C(=O)O [Example 132, (R)-2-(4-Benzo[b]naphtho[2,3-d]thiophen-11-yl-2,6-diiodo-phenoxy)-propionicacid]",-49.27,311
O=C(O)[C@@H](CCN1C(=O)c2ccccc2C1=O)Oc1ccc(-c2c3ccccc3cc3sc4ccccc4c23)cc1 [Example 148],-82.62,1230
"CN(C)CCSc1c2ccccc2c(-c2cc(Br)c(O[C@H](Cc3ccccc3)C(=O)O)c(Br)c2)c2c1sc1ccccc12 [Example 133, (R)-2-{2,6-Dibromo-4-[6-(2-dimethylamino-ethylsulfanyl)-benzo[b]naphtho[2,3-d]thiophen-11-yl]-phenoxy}-3-phenyl-propionic acid]",-27.89,506
"Oc1ccc(-c2c3ccccc3cc3sc4ccccc4c23)cc1O [Example 18, 4-(Benzo[b]naphtho[2,3-d]thiophen-11-yl)-benzene-1,2-diol]",-15.22,554
"O=C(O)[C@@H](Cc1ccccc1)Oc1c(Br)cc(-c2c3ccccc3c(OCc3ccccc3)c3sc4ccccc4c23)cc1Br [Example 184, (R)-2-[4-(6-Benzyloxy-benzo[b]naphtho[2,3-d]thiophen-11-yl]-2-6-dibromo-phenoxy}-3-phenyl-propionic acid]",-46.44,45
"COC(=O)[C@H](Cc1ccccc1)Oc1c(Br)cc(-c2c3ccccc3c(Br)c3sc4ccccc4c23)cc1Br [Example 110, (S)-2-[2,6-Dibromo-4-(6-bromo-benzo[b]naphtho[2,3-d]thiophen-11-yl)-phenoxy]-3-phenyl-propionic acid, methyl ester]",-12.78,1520
"Brc1cc(-c2c3ccccc3c(Br)c3sc4ccccc4c23)cc(Br)c1OCc1nnn[nH]1 [Example 171, 5-[2,6-Dibromo-4-(6-bromo-benzo[b]naphtho[2,3-d]thiophen-11-yl)-phenoxymethyl]-1 H-tetrazole]",-71.04,302
"Oc1c(Br)cc(-c2c3ccccc3c(Br)c3oc4ccccc4c23)cc1Br [Example 210, 2,6-Dibromo-4-(6-bromo-benzo[b]naphtho[2,3-d]furan-11ly)-phenol]",-51.55,1060

# Second part, the compound after the results:
% Change from Control [1] [%],IC50 (Human recombinant PTP1B) [nM],SMILES
-97.10,1300,"O=C(O)COc1cc(-c2c3ccccc3c(Br)c3sc4ccccc4c23)ccc1Br [Example 91, [2-Bromo-5-(6-bromo-benzo[b]naphtho[2,3-d]thiophen-11-yl)-phenoxyl]-acetic acid]"
-26.32,1020,"Oc1cc(-c2c3ccccc3c(Br)c3sc4ccccc4c23)ccc1Br [Example 68, 2-Bromo-5-(6-bromo-benzo[b]naphtho[2,3-d]thiophen-11-yl)-phenol]"
-3.02,1180,"CC(=O)Oc1ccc(-c2c3ccccc3c(Br)c3sc4ccccc4c23)cc1 [Example 37, 4-(6-Bromo-benzo[b]naphtho[2,3-d]thiophen-11-yl-phenol)acetate(ester)]"
-29.34,889,"COc1c(O)cc(-c2c3ccccc3c(Br)c3sc4ccccc4c23)cc1Br [Example 195, 3-Bromo-5-(6-bromo-benzo[b]naphtho[2,3-d]thiophen-11-yl)-2-methoxy-phenol]"
-60.67,145,"O=P(O)(O)COc1c(Br)cc(-c2c3ccccc3c(Br)c3sc4ccccc4c23)cc1Br [Example 162, [2,6-Dibromo-4-(6-bromo-benzo[b]naphtho[2,3-d]thiophen-11-yl)-phenoxymethyl]-phosphonic acid]"
-17.35,541,"O=C(O)[C@@H](Cc1c[nH]cn1)Oc1c(Br)cc(-c2c3ccccc3c(Br)c3sc4ccccc4c23)cc1Br [Example 120, (R)-2-[2,6-Dibromo-4-(6-bromo-benzo[b]naphtho[2,3-d]thiophen-11-yl)-phenoxy]-3-(1 H-imidazol-4-yl)-propionic acid, hydrochloride]"
-50.64,384,C[C@H](CC(=O)O)Oc1c(Br)cc(-c2c3ccccc3c(Br)c3sc4ccccc4c23)cc1Br [Example 180]
-76.98,1170,"C[C@H](Oc1cc(-c2c3ccccc3c(Br)c3sc4ccccc4c23)ccc1Br)C(=O)O [Example 143, (S)-2-[2-Bromo-5-(6-bromo-benzo[b]naphtho[2,3-d]thiophen-11-yl)-phenoxyl]-propionic acid]"
-39.32,1080,"Oc1ccc(-c2c3ccccc3c(Br)c3sc4ccccc4c23)cc1 [Example 41, 4-(6-Bromo-benzo[b]naphtho[2,3-d]thiophen-11-yl)-phenol]"
-32.41,384,"Oc1c(Br)cc(-c2c3ccccc3c(Br)c3sc4ccccc4c23)cc1Br [Example 21, 2,6-Dibromo-4-(6-bromo-benzo[b]naphtho[2,3-d]thiophen-11-yl)-phenol]"
-25.07,129,"Oc1c(Br)cc(-c2c3ccccc3c(Cl)c3sc4ccccc4c23)cc1Br [Example 60, 2,6-Dibromo-4-(6-chloro-benzo[b]naphtho[2,3-d]thiophen-11-yl)-phenol]"
-47.53,904,COc1c2ccccc2c(-c2cc(Br)c(O)c(Br)c2)c2c1sc1ccccc12 [Example 63]
-66.27,203,O=C(O)CCOc1c(Br)cc(-c2c3ccccc3c(Br)c3sc4ccccc4c23)cc1Br [Example 179]
-39.80,2000,"N#Cc1cc(-c2c3ccccc3cc3sc4ccccc4c23)ccc1OCC(=O)O [Example 82, [(4-benzo[b]naphtho[2,3-d]thiophen-11-yl)-2-cyano-phenoxy]-acetic acid]"
-9.30,1220,"N#CCOc1c(Br)cc(-c2c3ccccc3c(Br)c3sc4ccccc4c23)cc1Br [Example 169, [2,6-Dibromo-4-(6-bromo-benzo[b]naphtho[2.3-d]thiophen-11-yl)-phenoxy]-acetonitrile]"
-104.68,103,"O=C(O)[C@H](Oc1c(Br)cc(-c2c3ccccc3c(Br)c3sc4ccccc4c23)cc1Br)c1ccccc1 [Example 142, (R)-[2,6-Dibromo-4-(6-bromo-benzo[b]naphtho[2,3-d]thiophen-11-yl)-phenoxy]-phenyl-acetic acid]"
-95.22,994,"O=C(O)C[C@@H](Oc1c(Br)cc(-c2c3ccccc3c(Br)c3sc4ccccc4c23)cc1Br)C(=O)O [Example 152, (R)-2-[2,6-Dibromo-4-(6-bromo-benzo[b]naphtho[2,3-d]thiophen-11-yl)-phenoxy]-succinic acid]"
-98.16,644,"O=C(O)COc1cc(-c2c3ccccc3c(Br)c3sc4ccccc4c23)c(Br)cc1Br [Example 92, [2,4-Dibromo-5-(6-bromo-benzo[b]naphtho[2.3-d]thiophen-1-yl)-phenoxyl]-acetic acid]"
-3.12,665,NC(=O)COc1c(Br)cc(-c2c3ccccc3c(Br)c3sc4ccccc4c23)cc1Br [Example 165]
